Measured values published in ChEMBL document CHEMBL5584362, “Sucurchalasins A and B, Sulfur-Containing Heterodimers of a Cytochalasan and a Macrolide from the Endophytic Fungus Aspergillus spelaeus GDGJ-286” (J Nat Prod, 2024).
Values after ≈ are worked out from the molar mass of the structure shown. Active and inactive are the calls of the source. No cut-off for these calls is given here.

Assays:
Vibrio parahaemolyticus [1] = experiment: Antibacterial activity against Vibrio parahaemolyticus measured after 20 to 45 mins by broth microdilution method; format: functional; settings: time 20-45 min
Escherichia coli [2] = experiment: Antibacterial activity against Escherichia coli measured after 20 to 45 mins by broth microdilution method; format: functional; settings: time 20-45 min
Bacillus subtilis = experiment: Antibacterial activity against Bacillus subtilis measured after 20 to 45 mins by broth microdilution method; format: functional; settings: time 20-45 min
Shigella dysenteriae = experiment: Antibacterial activity against Shigella dysenteriae measured after 20 to 45 mins by broth microdilution method; format: functional; settings: time 20-45 min
Enterococcus faecalis = experiment: Antibacterial activity against Enterococcus faecalis measured after 20 to 45 mins by broth microdilution method; format: functional; settings: time 20-45 min
Staphylococcus aureus [3] = experiment: Antibacterial activity against Staphylococcus aureus measured after 20 to 45 mins by broth microdilution method; format: functional; settings: time 20-45 min
Salmonella typhi [4] = experiment: Antibacterial activity against Salmonella typhi measured after 20 to 45 mins by broth microdilution method; format: functional, Salmonella enterica subsp. enterica serovar Typhi; settings: Salmonella enterica; time 20-45 min
A2780 [5] = experiment: Induction of apoptosis in human A2780 cells assessed as late apoptotic cells at 1 uM measured after 48 hrs by Annexin V-FITC/PI staining based FACS analysis (reference value: 2.32 to 2.4%); format: functional
A2780 [6] = experiment: Induction of apoptosis in human A2780 cells assessed as necrotic cells at 1 uM measured after 48 hrs by Annexin V-FITC/PI staining based FACS analysis (reference value: 1.34 to 3.3%); format: functional
A2780 [7] = experiment: Induction of apoptosis in human A2780 cells assessed as increase in early apoptotic cells measured after 48 hrs by Annexin V-FITC/PI staining based FACS analysis; format: functional, cell-based; settings: dose 1-9 µM
A2780 [8] = experiment: Induction of apoptosis in human A2780 cells assessed as chromatin condensation at 1 to 9 uM measured after 48 hrs by Hoechst 33258 staining based assay; format: functional, cell-based; settings: dose 1-9 µM
A2780 [9] = experiment: Induction of apoptosis in human A2780 cells assessed as chromatin fragmentation at 1 to 9 uM measured after 48 hrs by Hoechst 33258 staining based assay; format: functional, cell-based; settings: dose 1-9 µM
Vibrio parahaemolyticus [10] = experiment: Antibacterial activity against Vibrio parahaemolyticus at 25 ug/ml measured after 20 to 45 mins by broth microdilution method; format: functional, organism-based; settings: dose 25.0 µg/ml, time 20-45 min
A2780 [11] = experiment: Induction of apoptosis in human A2780 cells assessed as necrotic cells at 9 uM measured after 48 hrs by Annexin V-FITC/PI staining based FACS analysis (reference value: 1.34 to 3.3%); format: functional
A2780 [12] = experiment: Induction of apoptosis in human A2780 cells assessed as viable cells at 1 uM measured after 48 hrs by Annexin V-FITC/PI staining based FACS analysis (reference value: 92.6 to 92.8%); format: functional; settings: read-out: Activity
A2780 [13] = experiment: Induction of apoptosis in human A2780 cells assessed as increase in late apoptotic cells measured after 48 hrs by Annexin V-FITC/PI staining based FACS analysis; format: functional, cell-based; settings: dose 1-9 µM
A2780 [14] = experiment: Cytotoxicity against human A2780 cells by MTT assay; format: functional, cell-based
A2780 [15] = experiment: Induction of apoptosis in human A2780 cells assessed as necrotic cells at 3 uM measured after 48 hrs by Annexin V-FITC/PI staining based FACS analysis (reference value: 1.34 to 3.3%); format: functional
A2780 [16] = experiment: Induction of apoptosis in human A2780 cells assessed as early apoptotic cells at 3 uM measured after 48 hrs by Annexin V-FITC/PI staining based FACS analysis (reference value: 1.68 to 1.9%); format: functional
A2780 [17] = experiment: Induction of apoptosis in human A2780 cells assessed as viable cells at 3 uM measured after 48 hrs by Annexin V-FITC/PI staining based FACS analysis (reference value: 92.6 to 92.8%); format: functional; settings: read-out: Activity
A2780 [18] = experiment: Induction of apoptosis in human A2780 cells assessed as viable cells at 9 uM measured after 48 hrs by Annexin V-FITC/PI staining based FACS analysis (reference value: 92.6 to 92.8%); format: functional; settings: read-out: Activity
A2780 [19] = experiment: Induction of apoptosis in human A2780 cells assessed as early apoptotic cells at 9 uM measured after 48 hrs by Annexin V-FITC/PI staining based FACS analysis (reference value: 1.68 to 1.9%); format: functional
Staphylococcus aureus [20] = experiment: Antibacterial activity against Staphylococcus aureus at 25 ug/ml measured after 20 to 45 mins by broth microdilution method; format: functional, organism-based; settings: dose 25.0 µg/ml, time 20-45 min
HepG2 = experiment: Cytotoxicity against human HepG2 cells by MTT assay; format: functional, cell-based
SK-OV-3 = experiment: Cytotoxicity against human SK-OV-3 cells by MTT assay; format: functional, cell-based
Escherichia coli [21] = experiment: Antibacterial activity against Escherichia coli at 25 ug/ml measured after 20 to 45 mins by broth microdilution method; format: functional, organism-based; settings: dose 25.0 µg/ml, time 20-45 min
Salmonella typhi [22] = experiment: Antibacterial activity against Salmonella typhi at 25 ug/ml measured after 20 to 45 mins by broth microdilution method; format: functional, organism-based; settings: Salmonella enterica subsp. enterica serovar Typhi; dose 25.0 µg/ml, time 20-45 min
A2780 [23] = experiment: Induction of apoptosis in human A2780 cells assessed as early apoptotic cells at 1 uM measured after 48 hrs by Annexin V-FITC/PI staining based FACS analysis (reference value: 1.68 to 1.9%); format: functional
HeLa = experiment: Cytotoxicity against human HeLa cells by MTT assay; format: functional, cell-based
A2780 [24] = experiment: Induction of apoptosis in human A2780 cells assessed as late apoptotic cells at 3 uM measured after 48 hrs by Annexin V-FITC/PI staining based FACS analysis (reference value: 2.32 to 2.4%); format: functional
A2780 [25] = experiment: Induction of apoptosis in human A2780 cells assessed as late apoptotic cells at 9 uM measured after 48 hrs by Annexin V-FITC/PI staining based FACS analysis (reference value: 2.32 to 2.4%); format: functional

SMILES | MIC (Vibrio parahaemolyticus [1]) | MIC (Escherichia coli [2]) | MIC (Bacillus subtilis) | MIC (Shigella dysenteriae) | MIC (Enterococcus faecalis) | MIC (Staphylococcus aureus [3]) | MIC (Salmonella typhi [4]) | IC50 (A2780 [14]) | IC50 (HepG2) | IC50 (SK-OV-3) | IC50 (HeLa) | also measured
O=C(O)c1cn(C2CC2)c2cc(N3CCNCC3)c(F)cc2c1=O [CIPROFLOXACIN] | 3.1 µg/mL (≈ 9.36 µM) | 1.6 µg/mL (≈ 4.83 µM) | 1.6 µg/mL (≈ 4.83 µM) | 1.6 µg/mL (≈ 4.83 µM) | 1.6 µg/mL (≈ 4.83 µM) | 1.6 µg/mL (≈ 4.83 µM) | 1.6 µg/mL (≈ 4.83 µM) | – | – | – | – | –
CC1=C[C@@H]2/C=C(\C)CC[C@@H](O)C(=O)C[C@@H](S[C@H]3CCC[C@H](C)OC(=O)Cc4cc(O)cc(O)c4C(=O)C3)C(=O)[C@]23C(=O)N[C@@H](CC(C)C)[C@@H]3[C@@H]1C | – | – | 6.3 µg/mL (≈ 8.7 µM) | 13 µg/mL (≈ 18 µM) | 3.1 µg/mL (≈ 4.28 µM) | – | – | 8.3 µM | 11 µM | 20 µM | 23 µM | Activity (A2780 [5]): 3.56%; Activity (A2780 [6]): 4.07%; Activity (A2780 [7]): Dose-Dependent Effect; Activity (A2780 [8]): Active; Activity (A2780 [9]): Active; Activity (Vibrio parahaemolyticus [10]): inactive; Activity (A2780 [11]): 1.87%; viability at 1 µM (A2780 [12]): 91%; Activity (A2780 [13]): Dose-Dependent Effect; Activity (A2780 [15]): 2.16%; Activity (A2780 [16]): 5.4%; viability at 3 µM (A2780 [17]): 87%; viability at 9 µM (A2780 [18]): 26%; Activity (A2780 [19]): 53.2%; Activity (Staphylococcus aureus [20]): inactive; Activity (Escherichia coli [21]): inactive; Activity (Salmonella typhi [22]): inactive; Activity (A2780 [23]): 1.4%; Activity (A2780 [24]): 5.46%; Activity (A2780 [25]): 19.1%
C[C@H]1CCC(=O)CCC(=O)c2c(O)cc(O)cc2CC(=O)O1 | > 25 µg/mL | > 25 µg/mL | > 25 µg/mL | > 25 µg/mL | > 25 µg/mL | > 25 µg/mL | > 25 µg/mL | > 20 µM | > 20 µM | > 20 µM | > 20 µM | –
CC1=C[C@@H]2/C=C(\C)CC[C@H](O)[C@H](O)/C=C/C(=O)O[C@]23C(=O)N[C@@H](CC(C)C)[C@@H]3[C@@H]1C [ASPOCHALASIN I] | > 25 µg/mL | > 25 µg/mL | > 25 µg/mL | > 25 µg/mL | > 25 µg/mL | > 25 µg/mL | > 25 µg/mL | > 20 µM | > 20 µM | > 20 µM | > 20 µM | –
CC1=C[C@@H]2/C=C(\C)CC[C@@H](O)[C@@H](O)[C@H](O)CC(=O)[C@]23C(=O)N[C@@H](CC(C)C)[C@@H]3[C@@H]1C | > 25 µg/mL | > 25 µg/mL | > 25 µg/mL | > 25 µg/mL | > 25 µg/mL | > 25 µg/mL | > 25 µg/mL | > 20 µM | > 20 µM | > 20 µM | > 20 µM | –
CO[C@H]1CCC[C@H](C)OC(=O)Cc2cc(O)cc(O)c2C(=O)C1 [11ALPHA-METHOXYCURVULARIN] | > 25 µg/mL | > 25 µg/mL | > 25 µg/mL | > 25 µg/mL | > 25 µg/mL | > 25 µg/mL | > 25 µg/mL | > 20 µM | > 20 µM | > 20 µM | > 20 µM | –
